Results reported in patent publication US12612392B2, “Compound, pharmaceutical compositions containing same, synthesis method therefor and use thereof” (SHENZHEN ZHONGGE BIOLOGICAL TECHNOLOGY CO., LTD., priority 2022, dated 2026).
pEC50: −log10 of the molar value.

test system: not listed separately; experiment: Cell membrane permeability (A to B / B to A, efflux ratio); format: in vitro ADME; conditions: not given
Description: The test compounds were diluted from 10 mM stock solutions to a concentration of 10 μM using the transport buffer (HBSS+BSA) and applied to the apical or basolateral side of the cell monolayer. After the incubation at 37° C., 5% CO2 and 95% relative humidity for 120 minutes, the permeability of the test compounds in the A to B direction or the B to A direction was tested in duplicate. In addition, the efflux ratio of each compound was determined. The test substances and reference substances were quantitatively analyzed by the LC-MS/MS method based on the analyte/IS peak area ratio.

For `C[C@H]1O[C@@H](O[C@H]2[C@@H](O)C[C@H](O[C@H]3[C@@H](O)C[C@H](O[C@H]4CC[C@@]5(C)[C@H](CC[C@@H]6[C@@H]5C[C@@H](O)[C@]5(C)[C@@H](C7=CC(=O)OC7)CC[C@]65O)C4)O[C@@H]3C)O[C@@H]2C)C[C@H](O)[C@@H]1O` [Digoxin, reference compound], which efflux ratio at 120 min, 10 µM is on record?
The efflux ratio at 120 min, 10 µM was 44.1.

test system: HEK293T/17-ATF4 uORF-Luc-Puro monoclonal cells; experiment: Cell activity test: ATF4 luciferase reporter, thapsigargin-induced stress; format: cell-based; conditions: Homo sapiens, HEK-293T; ATF4 reporter expression, 50 nM thapsigargin, 6 hours
From the text: The ATF4 luciferase reporter plasmid consists of two parts, i.e., the 5′ untranslated region sequence of the ATF4 gene and the luciferase coding sequence. Specifically, the ATF4 5′ untranslated region sequence (NCBI database number BC022088.2) containing two upstream open reading frames (uORFs), and the firefly luciferase encoding gene were cloned into the pLVX-Puro vector (YouBio, VT1465). The lentivirus packaging plasmids were psPAX2 (YouBio, VT1444) and pMD2.G (YouBio, VT1443). HEK293T/17 cells were transfected with the above three plasmids simultaneously using X-tremeGENE 9 DNA transfection reagent, and after 48 hours, a culture medium containing lentivirus was collected. HEK293T/17 cells transduced with the virus were screened with 1 μg/mL puromycin, and then monoclonal cells were obtained by limiting dilution.
By using this cell line and the cold fluorescence readings, the translational regulation of ATF4 can be detected, and the activity of the eIF2B activator can be tested. The specific experimental process is as follows: 6000 HEK293T/17-ATF4 uORF-Luc-Puro monoclonal cells were plated in a 384-well plate and allowed to adhere overnight. The test compounds were dissolved in DMSO and added together with 50 nM thapsigargin to the cell culture medium and incubated for 6 hours, wherein the thapsigargin was used to cause cellular stress and upregulate the protein translation of ATF4. Six hours after the addition, the cells were lysed using the One-Glo Luciferase Assay Kit (Promega #E6120), and then the cold fluorescence values were read using the LUM program of the EnVision 2104 plate reader.
The ATF4 reporter expression % was calculated as follows:
[formula] • ave_vc: average signal value of negative control • ave_pc: average signal value of positive control • ave_sample: average signal value of sample
The dose-response curves were fitted, and the EC50 values were calculated.
The nonlinear regression log (inhibitor) vs. response—variable slope (four parameters) method of GraphPad 9 software was used to fit the corresponding relationship between the ATF4 reporter expression % and the compound concentration.
X-axis: log value of compound concentration; Y-axis: ATF4 reporter expression %; Top: evaluation of upper asymptote of curve; Bottom: evaluation of lower asymptote of curve; Hillslope: slope of the fitted curve.

With `COC1CN(c2nnc(C3CCN(NC(=O)COc4ccc(Cl)c(F)c4)CC3)o2)C1` [Compound 1] as the compound, how does the pEC50 read?
The pEC50 was 7.00 to 8.00.

With `COC1CN(c2nnc(C3CCC(NC(=O)COc4ccc(Cl)c(F)c4)CC3)o2)C1` (stereo not drawn) [Compound 2] as the compound, how does the pEC50 read?
The pEC50 was 7.00 to 8.00.

With `O=C(COc1ccc(Cl)c(F)c1)NC12CCC(c3nnc(N4CC(OC(F)(F)F)C4)o3)(CC1)CC2` [Compound 3] as the compound, how does the pEC50 read?
The pEC50 was 8.00 to 9.00.

With `O=C(COc1ccc(Cl)c(F)c1)NC12CCC(c3nnc(N4CC(OC(F)(F)F)C4)o3)(CC1)CC2O` (stereo not drawn) [Compound 4] as the compound, how does the pEC50 read?
The pEC50 was greater than 9.00.

With `O=C(COc1ccc(Cl)c(F)c1)NN1CCC(c2nnc(N3CC(OC(F)(F)F)C3)o2)CC1` [Compound 7] as the compound, how does the pEC50 read?
The pEC50 was greater than 9.00.

With `O=C(COc1ccc(Cl)c(F)c1)NC12CCC(c3nnc(N4CC5(C4)CC(F)(F)C5)o3)(CC1)CC2` [Compound 8] as the compound, how does the pEC50 read?
Its pEC50 is 7.00 to 8.00.

With `CP(C)(=O)C1CN(c2nnc(C34CCC(NC(=O)COc5ccc(Cl)c(F)c5)(CC3)CC4)o2)C1` [Compound 9] as the compound, how does the pEC50 read?
Its pEC50 is less than 7.00.

With `O=C(COc1ccc(Cl)c(F)c1)NC12CCC(c3nnc(N4CC(OC(F)(F)C(F)(F)F)C4)o3)(CC1)CC2` [Compound 10] as the compound, how does the pEC50 read?
Its pEC50 is 8.00 to 9.00.

With `O=C(COc1ccc(Cl)c(F)c1)N[C@H]1CC[C@H](c2nnc(NC3CC(C(F)(F)F)C3)o2)CC1` (stereo partly drawn) [Compound 11] as the compound, how does the pEC50 read?
The pEC50 was 7.00 to 8.00.

With `Fc1cc(OCC(=S)N[C@H]2CC[C@H](c3nnc(N4CC(OC(F)(F)F)C4)o3)CC2)ccc1Cl` [Compound 12] as the compound, how does the pEC50 read?
Its pEC50 is 8.00 to 9.00.

With `CN(c1nnc([C@H]2CC[C@H](NC(=O)COc3ccc(Cl)c(F)c3)CC2)o1)C1CC(C(F)(F)F)C1` (stereo partly drawn) [Compound 14] as the compound, how does the pEC50 read?
Its pEC50 is 7.00 to 8.00.

With `O=C(COc1ccc(Cl)cc1)N[C@H]1CC[C@H](c2nnc(N3CC(OC(F)(F)F)C3)o2)CC1` [Compound 15] as the compound, how does the pEC50 read?
Its pEC50 is greater than 9.00.

With `O=C(COc1ccc(Cl)c(F)c1)N[C@@H]1CC[C@@H](c2nnc(N3CC(OC(F)(F)F)C3)o2)OC1` [Compound 16] as the compound, how does the pEC50 read?
Its pEC50 is 8.00 to 9.00.

With `O=C(CO[C@H]1C[C@@H](OC(F)(F)F)C1)N[C@H]1CC[C@H](c2nnc(N3CC(OC(F)(F)F)C3)o2)CC1` [Compound 17] as the compound, how does the pEC50 read?
Its pEC50 is 7.00 to 8.00.

With `O=C(COc1ccc(Cl)cn1)N[C@H]1CC[C@H](c2nnc(N3CC(OC(F)(F)F)C3)o2)CC1` [Compound 18] as the compound, how does the pEC50 read?
Its pEC50 is 7.00 to 8.00.

With `O=C(COc1ccc(Cl)c(F)c1)N[C@H]1CC[C@H](c2nnc(N3CC(OC(F)F)C3)o2)CC1` [Compound 19] as the compound, how does the pEC50 read?
Its pEC50 is 8.00 to 9.00.

With `O=C(COc1ccc(F)cc1)N[C@H]1CC[C@H](c2nnc(N3CC(OC(F)(F)F)C3)o2)CC1` [Compound 21] as the compound, how does the pEC50 read?
The pEC50 was 7.00 to 8.00.

With `O=C(COc1ccccc1Cl)N[C@H]1CC[C@H](c2nnc(N3CC(OC(F)(F)F)C3)o2)CC1` [Compound 22] as the compound, how does the pEC50 read?
Its pEC50 is less than 7.00.

With `O=C(COc1cccc(Cl)c1)N[C@H]1CC[C@H](c2nnc(N3CC(OC(F)(F)F)C3)o2)CC1` [Compound 23] as the compound, how does the pEC50 read?
The pEC50 was 7.00 to 8.00.

With `O=C(COc1cccc(F)c1)N[C@H]1CC[C@H](c2nnc(N3CC(OC(F)(F)F)C3)o2)CC1` [Compound 24] as the compound, how does the pEC50 read?
Its pEC50 is 7.00 to 8.00.

With `O=C(COc1ccc(F)c(Cl)c1)N[C@H]1CC[C@H](c2nnc(N3CC(OC(F)(F)F)C3)o2)CC1` [Compound 25] as the compound, how does the pEC50 read?
Its pEC50 is 8.00 to 9.00.

With `O=C(COc1ccc(Cl)c(Br)c1)N[C@H]1CC[C@H](c2nnc(N3CC(OC(F)(F)F)C3)o2)CC1` [Compound 26] as the compound, how does the pEC50 read?
Its pEC50 is greater than 9.00.

With `O=C(COc1ccc(Cl)cc1Cl)N[C@H]1CC[C@H](c2nnc(N3CC(OC(F)(F)F)C3)o2)CC1` [Compound 27] as the compound, how does the pEC50 read?
The pEC50 was 7.00 to 8.00.

With `O=C(COc1ccc(Cl)c(Cl)c1)N[C@H]1CC[C@H](c2nnc(N3CC(OC(F)(F)F)C3)o2)CC1` [Compound 28] as the compound, how does the pEC50 read?
The pEC50 was greater than 9.00.

With `O=C(COc1ccccc1F)N[C@H]1CC[C@H](c2nnc(N3CC(OC(F)(F)F)C3)o2)CC1` [Compound 29] as the compound, how does the pEC50 read?
The pEC50 was less than 7.00.

With `O=C(COc1ccc(F)cc1F)N[C@H]1CC[C@H](c2nnc(N3CC(OC(F)(F)F)C3)o2)CC1` [Compound 30] as the compound, how does the pEC50 read?
The pEC50 was less than 7.00.

With `O=C(COc1ccc(F)cc1Cl)N[C@H]1CC[C@H](c2nnc(N3CC(OC(F)(F)F)C3)o2)CC1` [Compound 31] as the compound, how does the pEC50 read?
The pEC50 was less than 7.00.

With `O=C(COc1cccc(Cl)c1Cl)N[C@H]1CC[C@H](c2nnc(N3CC(OC(F)(F)F)C3)o2)CC1` [Compound 32] as the compound, how does the pEC50 read?
Its pEC50 is less than 7.00.

With `O=C(COc1ccc(Cl)cc1F)N[C@H]1CC[C@H](c2nnc(N3CC(OC(F)(F)F)C3)o2)CC1` [Compound 33] as the compound, how does the pEC50 read?
Its pEC50 is 8.00 to 9.00.

With `O=C(COc1ccc(F)c(F)c1)N[C@H]1CC[C@H](c2nnc(N3CC(OC(F)(F)F)C3)o2)CC1` [Compound 34] as the compound, how does the pEC50 read?
The pEC50 was 8.00 to 9.00.

With `O=C(COc1ncc(Cl)cn1)N[C@H]1CC[C@H](c2nnc(N3CC(OC(F)(F)F)C3)o2)CC1` [Compound 35] as the compound, how does the pEC50 read?
The pEC50 was less than 7.00.

With `O=C(N[C@H]1CC[C@H](c2nnc(N3CC(OC(F)(F)F)C3)o2)CC1)c1nc(Cl)c[nH]1` [Compound 41] as the compound, how does the pEC50 read?
Its pEC50 is less than 7.00.

With `Cc1csc(C(=O)N[C@H]2CC[C@H](c3nnc(N4CC(OC(F)(F)F)C4)o3)CC2)n1` [Compound 42] as the compound, how does the pEC50 read?
The pEC50 was less than 7.00.

With `O=C(N[C@H]1CC[C@H](c2nnc(N3CC(OC(F)(F)F)C3)o2)CC1)c1cc(Cl)c[nH]1` [Compound 43] as the compound, how does the pEC50 read?
The pEC50 was 7.00 to 8.00.

With `O=C(N[C@H]1CC[C@H](c2nnc(N3CC(OC(F)(F)F)C3)o2)CC1)c1ccc2cc(Cl)ccc2n1` [Compound 44] as the compound, how does the pEC50 read?
The pEC50 was 8.00 to 9.00.

With `O=C(N[C@H]1CC[C@H](c2nnc(N3CC(OC(F)(F)F)C3)o2)CC1)c1cnc(C(F)F)cn1` [Compound 45] as the compound, how does the pEC50 read?
Its pEC50 is less than 7.00.

With `O=C(N[C@H]1CC[C@H](c2nnc(N3CC(OC(F)(F)F)C3)o2)CC1)c1ccc2c(c1)CCCO2` [Compound 46] as the compound, how does the pEC50 read?
The pEC50 was less than 7.00.

With `O=C(COc1cc(F)c(Cl)c(F)c1)N[C@H]1CC[C@H](c2nnc(N3CC(OC(F)(F)F)C3)o2)CC1` [Compound 47] as the compound, how does the pEC50 read?
Its pEC50 is 8.00 to 9.00.

With `O=C(COc1cc(F)c(Cl)cc1F)N[C@H]1CC[C@H](c2nnc(N3CC(OC(F)(F)F)C3)o2)CC1` [Compound 48] as the compound, how does the pEC50 read?
The pEC50 was 8.00 to 9.00.

With `O=C(COc1cc(F)c(Cl)cc1Cl)N[C@H]1CC[C@H](c2nnc(N3CC(OC(F)(F)F)C3)o2)CC1` [Compound 49] as the compound, how does the pEC50 read?
Its pEC50 is less than 7.00.

With `O=C(COc1ccc(Cl)c(F)c1F)N[C@H]1CC[C@H](c2nnc(N3CC(OC(F)(F)F)C3)o2)CC1` [Compound 50] as the compound, how does the pEC50 read?
The pEC50 was 8.00 to 9.00.

With `C[C@@H]1[C@@H](OC(F)(F)F)CN1c1nnc([C@H]2CC[C@H](NC(=O)COc3ccc(Cl)c(F)c3)CC2)o1` [Compound 51-1] as the compound, how does the pEC50 read?
The pEC50 was 7.00 to 8.00.

With `C[C@@H]1[C@H](OC(F)(F)F)CN1c1nnc([C@H]2CC[C@H](NC(=O)COc3ccc(Cl)c(F)c3)CC2)o1` [Compound 51-2] as the compound, how does the pEC50 read?
Its pEC50 is less than 7.00.

With `Nc1cc(Cl)ccc1OCC(=O)N[C@H]1CC[C@H](c2nnc(N3CC(OC(F)(F)F)C3)o2)CC1` [Compound 52] as the compound, how does the pEC50 read?
The pEC50 was less than 7.00.

With `O=C(COc1ncc(C(F)(F)F)s1)N[C@H]1CC[C@H](c2nnc(N3CC(OC(F)(F)F)C3)o2)CC1` [Compound 53] as the compound, how does the pEC50 read?
The pEC50 was less than 7.00.

With `O=C(COc1ccc(Cl)c(F)c1)N[C@H]1CC[C@H](c2nnc(N3CC(OC(F)(F)F)C3)o2)C[C@H]1O` [Compound 86] as the compound, how does the pEC50 read?
The pEC50 was 8.00 to 9.00.

With `O=C(CO[C@H]1CC[C@H](c2nnc(N3CC(OC(F)(F)F)C3)o2)CC1)Nc1ccc(Cl)c(F)c1` [Compound 90] as the compound, how does the pEC50 read?
Its pEC50 is 8.00 to 9.00.
